Values after ≈ are worked out from the molar mass of the structure shown. Read-outs that look alike come from different tables or passages of the source.
Key:
[1] = Solubility in phosphate-buffered saline solutions, PBS(-) and PBS(+); format: physicochemical
Procedure: The solubility of the various antibiotics was determined in phosphate-buffered saline (PBS) solutions and the data obtained are shown below. PBS(-) refers to a solution containing for each liter 0.2 g KCl, 0.2 g KH2 PO4, 8 g NaCl, and 1.15 g Na2 HPO4; PBS(+) contains additionally 100 mg MgCl2.6H2 O and 100 mg CaCl2.

[2] = Solubility in water; format: physicochemical; settings: in words
[3] = tested on: Candida albicans A9540; assay: In vivo activity against Candida albicans A9540 infection in mice; design: species or system male ICR mice; settings: for ED50: Candida albicans, read-out: PD50 (dose that protects 50% of the animals from infection)
Procedure: In vivo activity of compounds of the present invention was tested against Candida albicans A9540 infection in mice. Test organisms were cultured for 18 hours at 28° C. in YGP medium (yeast extract, glucose, peptone, K2 HPO4, MgSO4) and then suspended in saline. Male ICR mice weighing 20 to 24 g were infected intravenously with about 10 times the median lethal dose of the test fungus. The antibiotic at various dose levels was administered to groups of 5 mice each intravenously just after the fungal infection. The dose that protects 50% of the animals from infection (PD50, mg/kg) was calculated from survival rates recorded on the 20th day after the fungal challenge. All control animals died within 7 to 15 days after infection. The PD50 for compounds of Examples 5, 7, and 8 are 14 mg/kg (toxic), 11 mg/kg, and 3.5 mg/kg, respectively.

[4] = pbs(+) with mgcl2, PBS(+), containing additionally MgCl2 and CaCl2, read-out: Solubility
[5] = A9540, 480 h, intravenous just after infection, survival on 20th day

Row | Structure (SMILES) | solubility ([1]; pbs(-), read-out: Solubility) [µg/mL] | solubility [1, 4] [µg/mL] | also measured
1 | COc1cc(O)c2c(c1)C(=O)c1c(cc3c(c1O)-c1c(cc(C)c(C(=O)N[C@H](C)C(=O)O)c1O)[C@H](O[C@@H]1O[C@H](C)[C@H]([N+](C)(C)C)[C@H](O[C@@H]4OC[C@@H](O)[C@H](O)[C@H]4O)[C@H]1O)[C@H]3O)C2=O [Example 10, quaternary ammonium derivative of BU-3608] | > 2700 |  | 
2 | CN[C@@H]1[C@H](O[C@@H]2OC[C@@H](O)[C@H](O)[C@H]2O)[C@@H](O)[C@H](O[C@H]2c3cc(C)c(C(=O)N[C@H](C)C(=O)O)c(O)c3-c3c(cc4c(c3O)C(=O)c3cc(OC)cc(O)c3C4=O)[C@@H]2O)O[C@@H]1C [BU-3608] | 16 to 18 (≈ 19 to 21.4 µM) | 9 to 23 (≈ 10.7 to 27.4 µM) | solubility in water [2]: very limited
3 | COc1cc(O)c2c(c1)C(=O)c1c(cc3c(c1O)-c1c(cc(C)c(C(=O)N[C@H](C)C(=O)O)c1O)[C@H](O[C@@H]1O[C@H](C)[C@H](N(C)C)[C@H](O)[C@H]1O)[C@H]3O)C2=O [Example 5, N-methyl BU-3608 B] |  |  | ED50 ([3]; A9540, iv, 480 h): 14 mg/kg; toxicity remark at PD50 ([3]; intravenous, at 14 mg/kg, mice): toxic; solubility ([1]; pbs(+) with mgcl2, cacl2): 42 µg/mL (≈ 58.1 µM); solubility ([1]; pbs(-)): 330 µg/mL (≈ 457 µM)
4 | COc1cc(O)c2c(c1)C(=O)c1c(cc3c(c1O)-c1c(cc(C)c(C(=O)N[C@H](C)C(=O)O)c1O)[C@H](O[C@@H]1O[C@H](C)[C@H](N(C)C)[C@H](O[C@@H]4OC[C@@H](O)[C@H](O)[C@H]4O)[C@H]1O)[C@H]3O)C2=O [Example 8, N-methyl BU-3608] | 3100 (≈ 3630 µM) | 3 (≈ 3.51 µM) | ED50 [3, 5]: 3.5 mg/kg
5 | COc1cc(O)c2c(c1)C(=O)c1c(cc3c(c1O)-c1c(cc(C)c(C(=O)NCC(=O)O)c1O)[C@H](O[C@@H]1O[C@H](C)[C@H](N(C)C)[C@H](O[C@@H]4OC[C@@H](O)[C@H](O)[C@H]4O)[C@H]1O)[C@H]3O)C2=O [Example 7, N,N-dimethyl BU-3608 E] | 1800 (≈ 2140 µM) | > 2000 | ED50 [3, 5]: 11 mg/kg
6 | COc1cc(O)c2c(c1)C(=O)c1c(cc3c(c1O)-c1c(cc(C)c(C(=O)NCC(=O)O)c1O)[C@H](O[C@@H]1O[C@H](C)[C@H](N(C)C)[C@H](O)[C@H]1O)[C@H]3O)C2=O [Example 6, N,N-dimethyl desxylosyl BU-3608 E] |  |  | solubility ([1]; pbs(+) with mgcl2, cacl2): 122 µg/mL (≈ 172 µM); solubility ([1]; pbs(-)): > 2100 µg/mL
7 | CCCN(C)[C@@H]1[C@H](O[C@@H]2OC[C@@H](O)[C@H](O)[C@H]2O)[C@@H](O)[C@H](O[C@H]2c3cc(C)c(C(=O)N[C@H](C)C(=O)O)c(O)c3-c3c(cc4c(c3O)C(=O)c3cc(OC)cc(O)c3C4=O)[C@@H]2O)O[C@@H]1C [Example 9, N-propyl BU-3608] | 73 (≈ 82.7 µM) | 32 (≈ 36.2 µM) | 

Source: US4960755A, “BU-3608 derivatives” (Bristol-Myers Company, priority 1988, dated 1990)
